Values joined by “and” are separate entries in the source; they are usually repeats but may differ in a detail not shown here. Identical values can stand only once. Like-named read-outs stand apart in the source and are kept apart here.
Key:
[1] = test system: dark-adapted pupil diameter (miosis); experiment: Methadone pharmacodynamics: dark-adapted pupil diameter change; assay type: in vivo, human; conditions: for Maximum miosis / AUEC0-∞: mean ± SD, n=11; for AUEC0-∞: miosis
[2] = human, in vivo, po
[3] = cited from earlier work
[4] = test system: P-gp; conditions: oral fexofenadine P-gp probe, cited from earlier work
[5] = Oral; conditions: human, in vivo, 11.2 mg; for AUC(0-t): AUC0-96, oral d5-methadone HCl 11.2 mg; for AUC(0-t) / AUC(0-inf) / Cmax: mean ± SD, n=12; for AUC(0-inf): AUC0-∞; for AUC(0-inf) / Cmax / Tmax: oral d5-methadone HCl 11.2 mg; for Tmax: median (range)
[6] = Intravenous; conditions: human, in vivo, 6 mg, mean ± SD, n=12; for AUC(0-t): AUC0-96, IV methadone HCl 6.0 mg; for AUC(0-inf): AUC0-∞
[7] = 6.0 mg IV plus 11.2 mg oral methadone HCl
[8] = 6.0 mg IV plus 11.2 mg oral methadone HCl, acute ritonavir
[9] = 6.0 mg IV plus 11.2 mg oral methadone HCl, control
[10] = 6.0 mg IV plus 11.2 mg oral methadone HCl, steady-state ritonavir

CCC(=O)C(CC(C)N(C)C)(c1ccccc1)c1ccccc1 (stereo not shown) [methadone]
time at which miosis was first detectable (first time point) [1, 7]: 2 min
time of peak miosis effects [1, 7]: 5 to 10 min
Maximum miosis [1, 8]: 5.1 ± 1.0 mm
Maximum miosis [1, 9]: 4.3 ± 1.2 mm
Maximum miosis [1, 10]: 4.2 ± 0.6 mm
Emax ([1]; in vivo): 3.0 ± 0.2 mm and 4.2 ± 0.2 ^b mm and 3.3 ± 0.1 ^c mm
AUEC0-∞ [1, 8]: 135 ± 61 mm•hr
AUEC0-∞ [1, 9]: 117 ± 61 mm•hr
AUEC0-∞ [1, 10]: 91 ± 46 mm•hr
time of second plasma concentration peak [2]: 3 to 4 h
effect on plasma racemic methadone Cmax and AUC0-24 ([3]; 100mg ritonavir alone for 7d): no effect
decreases in methadone plasma concentrations after ritonavir initiation ([3]; patients on stable methadone doses, no withdrawal symptoms): 30-50%

CC(C)c1nc(CN(C)C(=O)N[C@H](C(=O)N[C@@H](Cc2ccccc2)C[C@H](O)[C@H](Cc2ccccc2)NC(=O)OCc2cncs2)C(C)C)cs1 [ritonavir]
increase in fexofenadine plasma AUC ([4]; acute ritonavir): 2.8 fold
increase in fexofenadine plasma AUC ([4]; steady-state ritonavir): 1.4 fold

CCC(=O)C(C[C@H](C)N(C)C)(c1ccccc1)c1ccccc1 [S-methadone]
AUC(0-t) ([5]; acute ritonavir): 336 ± 170 ng·h/mL
AUC(0-t) ([5]; control): 580 ± 253 ng·h/mL
AUC(0-t) ([5]; steady-state ritonavir): 308 ± 161 ng·h/mL
AUC(0-inf) ([5]; acute ritonavir): 388 ± 233 ng·h/mL
AUC(0-inf) ([5]; control): 672 ± 335 ng·h/mL
AUC(0-inf) ([5]; steady-state ritonavir): 340 ± 205 ng·h/mL
Cmax ([5]; acute ritonavir): 13 ± 6 ng/mL
Cmax ([5]; control): 21 ± 8 ng/mL
Tmax ([5]; acute ritonavir): 4 h
Tmax ([5]; control): 2 h
Tmax ([5]; steady-state ritonavir): 4 h
AUC(0-t) ([6]; acute ritonavir): 215 ± 93 ng·h/mL
AUC(0-t) ([6]; control): 379 ± 164 ng·h/mL
AUC(0-t) ([6]; steady-state ritonavir): 187 ± 107 ng·h/mL
AUC(0-inf) ([6]; IV methadone HCl 6.0 mg, acute ritonavir): 241 ± 120 ng·h/mL
AUC(0-inf) ([6]; IV methadone HCl 6.0 mg, steady-state ritonavir): 211 ± 129 ng·h/mL
Cmax ([6]; Cmax, IV methadone HCl 6.0 mg, steady-state ritonavir): 57 ± 29 ng/mL

— article PMC3583342 (Clinical pharmacology and therapeutics, 2008)
